Source: US12391664B2, “GluN2C/D subunit selective antagonists of the N-methyl-D-aspartate receptor” (Emory University, priority 2018, dated 2025)
Like-named read-outs stand apart in the source and are kept apart here. Marks after values point to notes of the source that are not given here.

Assays:
Assay type in all cases: cell-based
[1] = target: T1, recombinant rat GluN1/GluN2B (Rattus norvegicus, UniProt P35439+Q00960); assay: Two-electrode voltage-clamp recordings in Xenopus laevis oocytes, GluN2B; conditions: oocytes, 100 μM glutamate and 30 μM glycine
T1 construct: expressed in transfected cells; host or cells: Xenopus laevis oocytes injected with cRNA (GluN1:GluN2 ratio 1:2)
Description: (§1) All target compounds were evaluated for activity by the Traynelis laboratory at Emory University using two-electrode voltage-clamp recordings performed in Xenopus laevis oocytes expressing recombinant GluN2A-D subunits (Table 1). […] Two ester compounds 997-65 and 997-66 also performed no inhibition at GluN2A to GluN2D receptors. […] Consequently, for the compounds that Acker et al. already published, it was necessary to increase the concentration to 100 μM when collecting data for a concentration effect curve. […] Therefore, under this condition, we can only conclude that compound 997-67 remained potent at GluN2C/D-containing receptors, but its selectivity over GluN2A- and GluN2B-containing receptors could not be compared to 997-57. […] Finally, replacing the carboxylic acid to the bio-isostere amide yielded compounds 997-96 and 997-115, which dropped the potency 2- to 4-fold in comparison to their corresponding acids 997-74 and 997-114.
(§2) Two-electrode voltage-clamp recordings were performed in Xenopus laevis oocytes that were injected with mRNA to express recombinant rat GluN1/GluN2A, GluN1/GluN2B, GluN1/GluN2C, and GluN1/GluN2D. The recordings using unfertilized oocytes from Xenopus laevis were permitted by Emory University Institutional Animal Care and Use Committee (IACUC). An automatic injector (Nanoject II, Drummond Scientific) was used for cRNA injection using the pipettes filled with mineral oil. The cRNA that transcribed in vitro via the mMessage Machine kit (Ambion) was diluted with nuclease-free water, and then injected at GluN1/GluN2 with a ratio of 1:2. The oocytes were stored in Barth's solution that contained 88 mM NaCl, 5.0 mM Tris-HCl, 2.4 mM NaHCO3, 1.0 mM KCl, 0.84 mM MgSO4, 0.41 mM CaCl2, 0.33 mM Ca(NO3)2, 0.1 mg/ml gentamycin sulfate, 1.0 U/ml penicillin, and 1 μg/ml streptomycin at a pH of 7.4 and temperatures of 15-17° C. for two to five days before the two-electrode voltage-clamp recordings. When recording, the oocytes were placed in a perfusion chamber and continually washed with the recording solution comprised of 90 mM NaCl, 1.0 mM KCl, 0.50 mM BaCl2, 0.005 mM EDTA, and 10 mM HEPES at a pH of 7.4 and a temperature of 23° C. Glass electrodes with a tip resistance of 0.5 to 2.5 MΩ were obtained from thin-walled glass capillary tubes. Voltage electrodes and current electrodes were filled with 0.3 M and 3.0 M KCl, respectively. The recordings were executed with the oocytes membrane potential holding at −40 m V by an OC-725 amplifier (Warner Instrument Co). All compounds were dissolved in dimethyl sulfoxide (DMSO) as 20 mM stock solutions and future diluted to reach the desired concentration (0.05-0.5% (vol/vol) DMSO) in recording solution comprised of 30 μM glycine and 100 μM glutamate. Each compound was recorded 3-7 times in the least 4 oocytes from at least 2 different Xenopus laevis.
(§3) To evaluate the inhibition of compounds, the concentration-response curve was fitted with the average two-electrode voltage-clamp recording results with the equation
(§4) [formula] • where IC50 is the concentration of compounds that inhibit half maximal of the current response and N is the Hill slope.

[2] = target: T2, recombinant rat GluN1/GluN2C (Rattus norvegicus, UniProt P35439+Q00961); assay: Two-electrode voltage-clamp recordings in Xenopus laevis oocytes, GluN2C
T2 construct: expressed in transfected cells; host or cells: Xenopus laevis oocytes injected with cRNA (GluN1:GluN2 ratio 1:2)
Description: as §1, §2, §3, §4

[3] = target: T3, recombinant rat GluN1/GluN2D (Rattus norvegicus, UniProt P35439+Q62645); assay: Two-electrode voltage-clamp recordings in Xenopus laevis oocytes, GluN2D
T3 construct: expressed in transfected cells; host or cells: Xenopus laevis oocytes injected with cRNA (GluN1:GluN2 ratio 1:2)
Description: as §1, §2, §3, §4

[4] = target: T4, recombinant rat GluN1/GluN2D (Rattus norvegicus, UniProt Q62645); assay: as above; conditions: for 2B IC50 / 2D IC50 / 2A IC50 / 2D IC50: ratio of IC50 values
T4 construct: expressed in transfected cells; host or cells: Xenopus laevis oocytes injected with cRNA (GluN1:GluN2 ratio 1:2)
Description: as §1, §2, §3, §4

[5] = target: T5, recombinant rat GluN1/GluN2A (Rattus norvegicus, UniProt P35439+Q00959); assay: Two-electrode voltage-clamp recordings in Xenopus laevis oocytes, GluN2A; conditions: oocytes, 100 μM glutamate and 30 μM glycine
T5 construct: expressed in transfected cells; host or cells: Xenopus laevis oocytes injected with cRNA (GluN1:GluN2 ratio 1:2)
Description: as §1, §2, §3, §4

[6] = target: T6, recombinant rat GluN1/GluN2B (Rattus norvegicus, UniProt Q00960); assay: Two-electrode voltage-clamp recordings in Xenopus laevis oocytes, GluN2B; conditions: 3 μM compound with 100 μM glutamate and 30 μM glycine, control set as 1
T6 construct: expressed in transfected cells; host or cells: Xenopus laevis oocytes injected with cRNA (GluN1:GluN2 ratio 1:2)
Description: as §1, §2, §3, §4

[7] = target: T7, recombinant rat GluN1/GluN2C (Rattus norvegicus, UniProt Q00961); assay: Two-electrode voltage-clamp recordings in Xenopus laevis oocytes, GluN2C; conditions: 3 μM compound with 100 μM glutamate and 30 μM glycine, control set as 1
T7 construct: expressed in transfected cells; host or cells: Xenopus laevis oocytes injected with cRNA (GluN1:GluN2 ratio 1:2)
Description: as §1, §2, §3, §4

[8] = target: T8, recombinant rat GluN1/GluN2A (Rattus norvegicus, UniProt Q00959); assay: Two-electrode voltage-clamp recordings in Xenopus laevis oocytes, GluN2A; conditions: 3 μM compound with 100 μM glutamate and 30 μM glycine, control set as 1
T8 construct: expressed in transfected cells; host or cells: Xenopus laevis oocytes injected with cRNA (GluN1:GluN2 ratio 1:2)
Description: as §1, §2, §3, §4

[9] = oocytes, 100 μM glutamate and 30 μM glycine, read-out: GluN2C IC50
[10] = oocytes, 100 μM glutamate and 30 μM glycine, read-out: GluN2D IC50
[11] = read-out: IC50 at GluN2D-containing receptors
[12] = mean IC50 with bottom and top 95% confidence interval, read-out: Avg. GluN2C IC50 (95% CI)
[13] = mean IC50 with bottom and top 95% confidence interval, read-out: Avg. GluN2D IC50 (95% CI)

T3 sequence (Q62645 28-1323, other chains not shown): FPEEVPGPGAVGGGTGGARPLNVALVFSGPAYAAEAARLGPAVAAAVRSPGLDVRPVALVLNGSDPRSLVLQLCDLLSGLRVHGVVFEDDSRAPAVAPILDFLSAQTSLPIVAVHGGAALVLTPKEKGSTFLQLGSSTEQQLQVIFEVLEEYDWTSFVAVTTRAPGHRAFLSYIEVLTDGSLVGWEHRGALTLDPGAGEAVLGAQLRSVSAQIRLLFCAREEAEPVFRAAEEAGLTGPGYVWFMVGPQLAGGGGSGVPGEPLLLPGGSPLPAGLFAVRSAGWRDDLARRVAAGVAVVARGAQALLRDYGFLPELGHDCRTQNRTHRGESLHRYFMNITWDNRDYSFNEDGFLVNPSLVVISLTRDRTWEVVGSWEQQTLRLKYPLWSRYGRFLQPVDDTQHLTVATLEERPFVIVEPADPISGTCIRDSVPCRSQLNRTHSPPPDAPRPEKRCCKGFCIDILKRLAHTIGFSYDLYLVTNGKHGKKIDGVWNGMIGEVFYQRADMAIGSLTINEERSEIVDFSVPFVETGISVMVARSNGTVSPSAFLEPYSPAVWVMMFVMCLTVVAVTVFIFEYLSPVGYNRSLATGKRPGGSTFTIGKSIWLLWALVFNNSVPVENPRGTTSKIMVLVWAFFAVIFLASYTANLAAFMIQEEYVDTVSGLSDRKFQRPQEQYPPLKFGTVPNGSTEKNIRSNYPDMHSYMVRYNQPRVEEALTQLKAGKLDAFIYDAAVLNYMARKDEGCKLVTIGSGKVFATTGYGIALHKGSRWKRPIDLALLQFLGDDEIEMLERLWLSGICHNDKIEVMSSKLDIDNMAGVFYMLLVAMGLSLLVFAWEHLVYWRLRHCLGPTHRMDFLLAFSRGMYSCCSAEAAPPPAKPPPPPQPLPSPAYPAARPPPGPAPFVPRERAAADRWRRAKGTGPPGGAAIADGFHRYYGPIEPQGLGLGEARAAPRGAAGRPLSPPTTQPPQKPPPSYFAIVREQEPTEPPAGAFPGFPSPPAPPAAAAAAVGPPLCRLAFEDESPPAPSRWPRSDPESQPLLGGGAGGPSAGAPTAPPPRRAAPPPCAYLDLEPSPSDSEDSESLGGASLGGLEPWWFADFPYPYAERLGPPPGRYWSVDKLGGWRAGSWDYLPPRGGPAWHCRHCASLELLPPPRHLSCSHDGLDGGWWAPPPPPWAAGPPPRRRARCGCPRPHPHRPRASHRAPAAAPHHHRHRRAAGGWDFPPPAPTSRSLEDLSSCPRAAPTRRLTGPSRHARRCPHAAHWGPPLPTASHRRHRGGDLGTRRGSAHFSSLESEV
T4 sequence (Q62645 28-1323, other chains not shown): as above
T1 sequence (Q00960 27-1482, other chains not shown): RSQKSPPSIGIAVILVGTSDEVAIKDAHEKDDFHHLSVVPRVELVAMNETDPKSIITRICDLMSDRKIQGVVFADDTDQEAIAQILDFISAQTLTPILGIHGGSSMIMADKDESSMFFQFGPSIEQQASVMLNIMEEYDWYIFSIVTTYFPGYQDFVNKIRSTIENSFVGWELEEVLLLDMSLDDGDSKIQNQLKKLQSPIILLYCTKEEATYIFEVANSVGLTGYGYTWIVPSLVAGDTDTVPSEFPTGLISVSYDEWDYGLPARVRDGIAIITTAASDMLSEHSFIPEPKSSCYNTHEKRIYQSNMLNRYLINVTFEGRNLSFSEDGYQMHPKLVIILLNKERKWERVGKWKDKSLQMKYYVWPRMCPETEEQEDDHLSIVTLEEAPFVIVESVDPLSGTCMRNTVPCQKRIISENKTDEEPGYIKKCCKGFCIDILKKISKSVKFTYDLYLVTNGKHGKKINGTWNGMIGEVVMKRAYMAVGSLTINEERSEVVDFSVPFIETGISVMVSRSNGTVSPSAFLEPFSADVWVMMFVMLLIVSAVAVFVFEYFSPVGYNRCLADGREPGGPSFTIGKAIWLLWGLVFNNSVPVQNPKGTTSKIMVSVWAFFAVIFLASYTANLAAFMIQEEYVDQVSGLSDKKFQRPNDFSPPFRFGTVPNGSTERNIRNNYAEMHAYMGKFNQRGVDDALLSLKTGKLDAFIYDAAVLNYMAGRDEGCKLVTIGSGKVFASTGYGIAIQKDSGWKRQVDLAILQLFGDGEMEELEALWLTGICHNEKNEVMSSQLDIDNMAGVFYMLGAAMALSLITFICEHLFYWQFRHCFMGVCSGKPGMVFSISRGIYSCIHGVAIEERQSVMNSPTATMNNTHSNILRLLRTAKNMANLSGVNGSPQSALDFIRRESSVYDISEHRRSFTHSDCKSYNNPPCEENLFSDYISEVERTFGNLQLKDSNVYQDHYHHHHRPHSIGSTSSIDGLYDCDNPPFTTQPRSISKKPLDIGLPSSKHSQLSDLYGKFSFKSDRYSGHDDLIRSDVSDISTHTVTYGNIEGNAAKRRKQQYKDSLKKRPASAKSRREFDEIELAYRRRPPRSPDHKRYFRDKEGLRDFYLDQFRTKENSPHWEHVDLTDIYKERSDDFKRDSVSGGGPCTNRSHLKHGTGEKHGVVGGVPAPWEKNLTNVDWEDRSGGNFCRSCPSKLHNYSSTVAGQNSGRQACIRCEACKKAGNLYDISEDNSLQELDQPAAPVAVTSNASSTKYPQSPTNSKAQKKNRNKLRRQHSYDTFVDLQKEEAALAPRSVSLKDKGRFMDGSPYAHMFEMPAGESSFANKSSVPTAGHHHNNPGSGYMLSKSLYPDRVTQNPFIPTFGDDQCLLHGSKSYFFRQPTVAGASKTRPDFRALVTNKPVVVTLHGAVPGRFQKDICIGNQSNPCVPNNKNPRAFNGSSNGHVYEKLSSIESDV
T2 sequence (Q00961 20-1237, other chains not shown): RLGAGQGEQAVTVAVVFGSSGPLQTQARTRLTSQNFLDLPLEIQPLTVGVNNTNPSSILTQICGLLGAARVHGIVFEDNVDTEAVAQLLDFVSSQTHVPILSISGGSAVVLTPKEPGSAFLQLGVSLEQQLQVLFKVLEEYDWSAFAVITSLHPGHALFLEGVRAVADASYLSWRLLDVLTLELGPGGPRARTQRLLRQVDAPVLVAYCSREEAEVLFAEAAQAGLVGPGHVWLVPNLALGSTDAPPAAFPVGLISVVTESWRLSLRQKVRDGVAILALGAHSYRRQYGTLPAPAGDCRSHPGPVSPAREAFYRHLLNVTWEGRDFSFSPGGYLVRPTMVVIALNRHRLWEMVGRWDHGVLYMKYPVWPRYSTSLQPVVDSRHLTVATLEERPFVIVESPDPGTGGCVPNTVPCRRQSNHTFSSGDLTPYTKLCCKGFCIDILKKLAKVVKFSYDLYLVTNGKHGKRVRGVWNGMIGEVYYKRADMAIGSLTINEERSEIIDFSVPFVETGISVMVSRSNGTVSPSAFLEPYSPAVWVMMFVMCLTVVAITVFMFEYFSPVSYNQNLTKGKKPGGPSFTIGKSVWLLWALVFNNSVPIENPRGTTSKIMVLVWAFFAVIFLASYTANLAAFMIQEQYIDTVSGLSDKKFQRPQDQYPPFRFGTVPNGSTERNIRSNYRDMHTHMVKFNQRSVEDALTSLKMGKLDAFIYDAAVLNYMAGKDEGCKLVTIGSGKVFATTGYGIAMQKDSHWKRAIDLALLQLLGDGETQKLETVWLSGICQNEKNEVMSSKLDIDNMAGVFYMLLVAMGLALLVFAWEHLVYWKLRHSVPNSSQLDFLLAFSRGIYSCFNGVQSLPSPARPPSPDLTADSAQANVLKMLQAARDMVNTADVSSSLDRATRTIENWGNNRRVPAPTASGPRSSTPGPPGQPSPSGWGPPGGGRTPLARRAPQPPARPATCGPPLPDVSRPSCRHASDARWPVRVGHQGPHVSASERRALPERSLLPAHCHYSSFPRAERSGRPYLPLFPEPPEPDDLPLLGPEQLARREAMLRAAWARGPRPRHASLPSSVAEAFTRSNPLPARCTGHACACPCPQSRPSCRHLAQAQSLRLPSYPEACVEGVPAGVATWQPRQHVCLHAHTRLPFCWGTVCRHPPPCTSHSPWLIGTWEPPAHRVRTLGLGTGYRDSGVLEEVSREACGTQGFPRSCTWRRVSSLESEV
T7 sequence (Q00961 20-1237, other chains not shown): as above

SMILES	IC50 [1] [nM]	IC50 [2, 9] [nM]	IC50 [3, 10] [nM]	2B IC50 / 2D IC50 [4]	IC50 [5] [nM]	further results
O=C(O)CC(F)(F)C(=O)N1N=C(c2ccccc2-c2ccc(Cl)cc2)CC1c1ccc(Cl)s1 (stereo not shown) [997-118, 4-(3-(4′-chloro-[1,1′-biphenyl]-2-yl)-5-(5-chlorothiophen-2-yl)-4,5-dihydro-1H-pyrazol-1-yl)-3,3-difluoro-4-oxobutanoic acid]	12000	3690	3740	3	9010	–
O=C(O)CC(F)(F)C(=O)N1N=C(c2ccccc2-c2ccc(Cl)cc2)CC1c1ccc(OC(F)(F)F)cc1 (stereo not shown) [997-117, 4-(3-(4′-chloro-[1,1′-biphenyl]-2-yl)-5-(4-(trifluoromethoxy)phenyl)-4,5-dihydro-1H-pyrazol-1-yl)-3,3-difluoro-4-oxobutanoic acid]	8790	3440	2870	3	17200	–
O=C(O)CCC(=O)N1N=C(c2c(-c3ccc(Cl)cc3)c3ccccc3[nH]c2=O)CC1c1ccc(Cl)s1 (stereo not shown) [997-111, 4-(3-(4-(4-chlorophenyl)-2-oxo-1,2-dihydroquinolin-3-yl)-5-(5-chlorothiophen-2-yl)-4,5-dihydro-1H-pyrazol-1-yl)-4-oxobutanoic acid]	34000	1300	800	43	21000	–
O=C(O)CCC(=O)N1N=C(c2c(-c3ccc(Cl)cc3)c3ccccc3[nH]c2=O)CC1c1ccc(C(F)(F)F)cc1 (stereo not shown) [997-112, 4-(3-(4-(4-chlorophenyl)-2-oxo-1,2-dihydroquinolin-3-yl)-5-(4-(trifluoromethyl)phenyl)-4,5-dihydro-1H-pyrazol-1-yl)-4-oxobutanoic acid]	20000	350	200	100	13000	–
O=C(O)CCC(=O)N1N=C(c2c(-c3ccc(Cl)cc3)c3ccccc3[nH]c2=S)CC1c1ccc(Cl)cc1 (stereo not shown) [997-97, 4-(5-(4-chlorophenyl)-3-(4-(4-chlorophenyl)-2-thioxo-1,2-dihydroquinolin-3-yl)-4,5-dihydro-1H-pyrazol-1-yl)-4-oxobutanoic acid]	30000	480	350	86	16000	2A IC50 / 2D IC50 [4]: 46
O=C(O)CC(F)(F)C(=O)N1N=C(c2c(-c3ccc(Cl)s3)c3ccccc3[nH]c2=O)CC1c1ccc(Cl)cc1 (stereo not shown) [997-109, 4-(5-(4-chlorophenyl)-3-(4-(5-chlorothiophen-2-yl)-2-oxo-1,2-dihydroquinolin-3-yl)-4,5-dihydro-1H-pyrazol-1-yl)-3,3-difluoro-4-oxobutanoic acid]	4000	280	–	–	2600	IC50 [3, 11]: 100 nM
O=C(O)CC(F)(F)C(=O)N1N=C(c2ccccc2-c2ccc(F)c(Cl)c2)CC1c1ccc(Cl)cc1 (stereo not shown) [997-120, 4-(3-(3′-chloro-4′-fluoro-[1,1′-biphenyl]-2-yl)-5-(4-chlorophenyl)-4,5-dihydro-1H-pyrazol-1-yl)-3,3-difluoro-4-oxobutanoic acid]	8800	5230	3360	–	11000	–
O=C(O)CC(F)(F)C(=O)N1N=C(c2c(-c3ccc(F)cc3)c3cc(F)ccc3[nH]c2=O)CC1c1ccc(Cl)cc1 (stereo not shown) [997-102, 4-(5-(4-chlorophenyl)-3-(6-fluoro-4-(4-fluorophenyl)-2-oxo-1,2-dihydroquinolin-3-yl)-4,5-dihydro-1H-pyrazol-1-yl)-3,3-difluoro-4-oxobutanoic acid]	7300	1000	–	–	5900	IC50 [3, 11]: 400 nM
Cc1ccc2[nH]c(=O)c(C3=NN(C(=O)C(F)(F)CC(=O)O)C(c4ccc(Cl)cc4)C3)c(-c3ccc(Cl)cc3)c2c1 (single isomer, unassigned; (-)) [(−)-997-90]	1900	200	130	–	1900	I3 μM/Icontrol (mean ± SEM, %) GluN2B ([6]; listed as (−)-90): 34 ± 5.0%; IC50 [2, 12]: 210 nM; I3 μM/Icontrol (mean ± SEM, %) GluN2C ([7]; listed as (−)-90): 7.0 ± 2.2%; IC50 [3, 13]: 130 nM; I3 μM/Icontrol (mean ± SEM, %) GluN2D ([4]; 3 μM compound with 100 μM glutamate and 30 μM glycine, control set as 1): 3.4 ± 1.2%; I3 μM/Icontrol (mean ± SEM, %) GluN2A ([8]; listed as (−)-90): 33 ± 4.5%
O=C(CC(F)(F)C(=O)O)N1N=C(c2c(-c3ccc(Cl)cc3)c3ccccc3[nH]c2=O)CC1c1ccc(Cl)cc1 (stereo not shown) [997-114, 4-(5-(4-chlorophenyl)-3-(4-(4-chlorophenyl)-2-oxo-1,2-dihydroquinolin-3-yl)-4,5-dihydro-1H-pyrazol-1-yl)-2,2-difluoro-4-oxobutanoic acid]	8150	338	–	48	5670	IC50 [3, 11]: 170 nM; 2A IC50 / 2D IC50 [4]: 33
Cc1ccc2[nH]c(=O)c(C3=NN(C(=O)C(F)(F)CC(=O)O)C(c4ccc(Cl)cc4)C3)c(-c3ccc(Cl)cc3)c2c1 (single isomer, unassigned; (+)) [(+)-997-90]	1800	2100	< 1000	–	4100	I3 μM/Icontrol (mean ± SEM, %) GluN2B ([6]; listed as (+)-90): 53 ± 3.6%; IC50 [2, 12]: 2100 nM; I3 μM/Icontrol (mean ± SEM, %) GluN2C ([7]; listed as (+)-90): 36 ± 3.0%; IC50 [3, 13]: 660 nM; I/Icontrol (mean ± SEM, %) GluN2D, data with ** ([4]; 1 μM compound with 100 μM glutamate and 30 μM glycine, control set as 1): 31 ± 9.8** %; I3 μM/Icontrol (mean ± SEM, %) GluN2A ([8]; listed as (+)-90): 72 ± 2.9%
O=C(O)CC(F)(F)C(=O)N1N=C(c2c(-c3ccc(Cl)cc3)c3ccccc3[nH]c2=O)CC1c1ccc(C(F)(F)F)cc1 (stereo not shown) [997-113, 4-(3-(4-(4-chlorophenyl)-2-oxo-1,2-dihydroquinolin-3-yl)-5-(4-(trifluoromethyl)phenyl)-4,5-dihydro-1H-pyrazol-1-yl)-3,3-difluoro-4-oxobutanoic acid]	2900	170	80	36	2300	–
O=C(O)CC(F)(F)C(=O)N1N=C(c2c(-c3ccc(Cl)cc3)c3ccccc3[nH]c2=O)CC1c1ccc(F)cc1 (stereo not shown) [997-104, 4-(3-(4-(4-chlorophenyl)-2-oxo-1,2-dihydroquinolin-3-yl)-5-(4-fluorophenyl)-4,5-dihydro-1H-pyrazol-1-yl)-3,3-difluoro-4-oxobutanoic acid]	30000	1600	810	37	20000	fold decrease of potency at GluN2D in comparison to 997-74 ([4]; comparator 997-74): 16 fold
O=C(O)/C=C(/F)C(=O)N1N=C(c2c(-c3ccc(Cl)cc3)c3ccccc3[nH]c2=O)CC1c1ccc(Cl)cc1 (stereo not shown) [997-101, (E)-4-(5-(4-chlorophenyl)-3-(4-(4-chlorophenyl)-2-oxo-1,2-dihydroquinolin-3-yl)-4,5-dihydro-1H-pyrazol-1-yl)-3-fluoro-4-oxobut-2-enoic acid]	11000	70	–	183	3000	IC50 [3, 11]: 60 nM; selectivity at GluN2D- over GluN2A-containing receptor [4]: 50 fold; 2A IC50 / 2D IC50 [4]: 50
